Earlier results in patent US20240384284A1, “FEED CROPS FOR REDUCED METHANOGENESIS IN LIVESTOCK” (Elysia Creative Biology, LLC, priority 2023, published 2024).

System: methanogenesis

BrC(Br)Br [Bromoform]
in vivo methane reduction: up to 98%
